Measured values reported in patent US5132291A, “Antivirals and methods for increasing the antiviral activity of AZT” (priority 1989, dated 1992).
Like-named read-outs stand apart in the source and are kept apart here.

Columns and labels:
[1] = test system: BAG vector pseudotyped by MA (amphotrophic murine leukemia virus); assay: U937/BAG+MA colony resistance assay titered on 208F rat fibroblasts; assay type: cell-based; conditions: 500 μM AICA riboside
Description: A second, similar assay system was utilized in which a human macrophage line (U937) carrying the BAG retroviral vector construct (having neomycin resistance and beta-galactosidase marker genes), Cepko, PNAS, Vol. 84, p. 156-160 (1987), was infected with MA (amphotrophic MLV [murine leukemia virus]). MA was used to pseudotype the replication-defective BAG vector, which was then titered on 208F cells. According to this assay, the results of which are shown in FIG. 1c, 0.01 μM AZT and 500 μM AICA riboside were both effective against murine retroviruses. […]
In this colony-forming bioassay for the characterization of antiviral compounds against retroviruses, a replication-defective retroviral vector construct having the ability to confer neomycin-resistance (U937/BAG or N2) is psuedotyped, infects a single cell, and under neomycin selection, allows the recipient cell to form a colony. Since each infection yields a neomycin-resistant cell capable of producing a discrete group of cells, colonies can be counted, resulting in a linear relationship between the number of colonies and the first order of virus concentration. […]
After drying, the plates were stained with 2 ml of 1:20 Glemsa (Sigma) for 1 hour. […] All colonies containing 50 or more cells were scored.

[2] = test system: Chinese hamster lung fibroblasts; conditions: cited from earlier work
[3] = test system: WI-L2 cells; assay: Lymphoblast assay, effects on cell growth, WI-L2 B-cell line; assay type: cell-based; conditions: AICA riboside alone, up to 500 μM
Description: Several lymphoblast lines were utilized in conjunction with varying doses of antiviral agents to determine their effects on cell growth. In this method a daily cell count over a period of time, post-addition of antiviral compounds, can be compared with the normal cell growth curve.
Two representative T-cell lines, SupT-1 and CEM, and a B-cell line, WI-L2, were grown to mid-log phase 5×10^5 cells/ml in 50 ml of RPMI 1640 (Irvine Scientific) supplemented with 10% heat-inactivated fetal calf serum (Gemini-Bioproducts) and 1% glutamine (Gibco) to standardize seeding conditions and to assure a population of logarithmically growing cells.
An appropriate number cf T-25 flasks (Corning) were seeded with evenly suspended cells at 0.5×10^5 cells/ml in 20 ml of fresh growth media. Including a control condition, each set of flasks was treated with a dose range of antiviral compound for each cell line. Each dose condition was repeated in triplicate. All flasks were incubated for 5 days at 37° C. in a 5% CO2 incubator.
Every 24 hours for 5 days, three 0.2 ml samples of each flask were diluted in 9.8 ml of isoton (Fisher Scientific) and counted on a cell counter (Coulter Co.). The average of each flask was recorded, and the average of each triplicate antiviral does was then averaged and recorded.

[4] = test system: HIV; assay: HIV syncitial forming assay using SupT-1 cells; assay type: cell-based; conditions: AICA riboside 5 μM-500 μM
Description: The assay was performed following the procedure described in Example Three except that SupT-1 cells were used. Using the SupT-1 cells, the medium was not changed at day 5 post-infection and the syncitia were counted at day 5 post-infection at 40X. The results are plotted in FIGS. 5, 6(b), and 7.

For NC(=O)c1ncn([C@@H]2O[C@H](CO)[C@@H](O)[C@H]2O)c1N [AICA riboside, 5-amino-1-β-D-ribofuranosyl-imidazole-4-carboxamide], the “effectiveness against murine retroviruses” value [1] is listed as “effective”, the “expansion of the purine pool (ATP and GTP)” value ([2]; 50 μM and 200 μM) is listed as “about 40%” and the growth rate ([2]; 50 μM and 200 μM, reversible by uridine) is listed as “reduced growth rate”. The “drop in PRPP availability, measured by adenine incorporation” value ([2]; 50 μM) was 18%, the “drop in PRPP availability, measured by adenine incorporation” value ([2]; 200 μM) was 82% and the “effect on cell growth” value ([2]; 200 μM, reversed by uridine) was “arrested cell growth”. For the same molecule, the cytotoxicity ([2]; 700 μM) was “no cytotoxicty”, the “UTP and CTP pools” value [2] was “decreased by a factor of approximately ten” and the “effect on WI-L2 (B-cell) growth” value [3] was “no effect”. For the same molecule, the “effectiveness against the AIDS virus (prevention of syncitial formation)” value [4] was “less than 100%”.
